# Source: patent US20250263370A1 (Tay Therapeutics Limited, priority 2022, published 2025)
# Where “and” joins values, the source holds several entries; their conditions need not be identical. Equal entries are not always repeated. Entries after “also recorded” stand apart in the source; their conditions may differ.
# System: collagen-induced arthritis
# Test: Collagen-induced arthritis (CIA) model in rats: body weight, paw volume, clinical scores, clinical observations
# Conditions: CIA rats
# [1] = 10 mg/kg twice daily P.O. (group 6), day 21
# [2] = 30 mg/kg twice daily P.O. (group 7)
# [3] = 30 mg/kg twice daily P.O. (group 7), day 15
# [4] = 30 mg/kg twice daily P.O. (group 7), day 19
# [5] = 30 mg/kg twice daily P.O. (group 7), day 21
smiles,measurement,setting,value
"CNC(=O)c1[nH]c(C(=O)NC2CCC2)cc1O[C@@H](C)c1ccccc1 (stereo in doubt) [Example 101, N^5-cyclobutyl-N^2-methyl-3-(1-phenylethoxy)-1H-pyrrole-2,5-dicarboxamide]",animals with a score of 2 on one hind limb and no score on the other hind limb,[1],1/8
same,animals with scores of 1 or 2 on both hind limbs,[1],2/8
same,animals with scores of 3 on each hind limb,[1],3/8
same,animals with scores of 4 on one or more hind limbs,"10 mg/kg twice daily P.O. (group 6), days 19 and 21",2/8
same,paw volume increase at plateau relative to day 0,"10 mg/kg twice daily P.O. (group 6), plateau at day 18",approximately 50%
same,Average animal paw volume percent change,"10 mg/kg, Day 0, left hind paw (L)",0.00%
same,Animal paw volume Day 0 L,"10 mg/kg, Day 0, left paw, individual animals",1.39 mL and 1.26 mL (2×) and 1.29 mL (2×) and 1.31 mL and 1.30 mL and 1.37 mL
same,Average animal paw volume percent change,"10 mg/kg, Day 0, right hind paw (R)",0.00%
same,Animal paw volume Day 0 R,"10 mg/kg, Day 0, right paw, individual animals",1.41 mL and 1.26 mL (2×) and 1.30 mL (3×) and 1.31 mL and 1.37 mL
same,Average animal paw volume percent change,"10 mg/kg, Day 6, left hind paw (L)",1.14%
same,Animal paw volume Day 6 L,"10 mg/kg, Day 6, left paw, individual animals",1.41 mL and 1.23 mL and 1.31 mL and 1.33 mL and 1.34 mL and 1.35 mL and 1.37 mL and 1.26 mL
same,Average animal paw volume percent change,"10 mg/kg, Day 6, right hind paw (R)",0.87%
same,Animal paw volume Day 6 R,"10 mg/kg, Day 6, right paw, individual animals",1.41 mL and 1.24 mL and 1.32 mL and 1.33 mL and 1.34 mL (2×) and 1.36 mL and 1.26 mL
same,Average animal paw volume percent change,"10 mg/kg, Day 12, left hind paw (L)",7.61%
same,Animal paw volume Day 12 L,"10 mg/kg, Day 12, left paw, individual animals",1.52 mL and 1.26 mL and 1.43 mL and 1.63 mL and 1.34 mL and 1.44 mL and 1.39 mL and 1.27 mL
same,Average animal paw volume percent change,"10 mg/kg, Day 12, right hind paw (R)",7.98%
same,Animal paw volume Day 12 R,"10 mg/kg, Day 12, right paw, individual animals",1.44 mL and 1.27 mL and 1.88 mL and 1.33 mL and 1.35 mL and 1.38 mL and 1.39 mL and 1.29 mL
same,Average animal paw volume percent change,"10 mg/kg, Day 13, left hind paw (L)",16.61%
same,Animal paw volume Day 13 L,"10 mg/kg, Day 13, left paw, individual animals",1.71 mL and 1.32 mL and 1.81 mL and 1.83 mL and 1.35 mL and 1.45 mL and 1.44 mL and 1.31 mL
same,Average animal paw volume percent change,"10 mg/kg, Day 13, right hind paw (R)",10.89%
same,Animal paw volume Day 13 R,"10 mg/kg, Day 13, right paw, individual animals",1.54 mL and 1.32 mL and 1.90 mL and 1.37 mL (2×) and 1.41 mL and 1.44 mL and 1.29 mL
same,Average animal paw volume percent change,"10 mg/kg, Day 14, left hind paw (L)",30.15%
same,Animal paw volume Day 14 L,"10 mg/kg, Day 14, left paw, individual animals",2.00 mL and 1.50 mL and 2.07 mL and 2.45 mL and 1.39 mL and 1.45 mL and 1.44 mL and 1.31 mL
same,Average animal paw volume percent change,"10 mg/kg, Day 14, right hind paw (R)",21.45%
same,Animal paw volume Day 14 R,"10 mg/kg, Day 14, right paw, individual animals",1.62 mL and 1.68 mL and 2.23 mL and 1.67 mL and 1.37 mL and 1.43 mL and 1.46 mL and 1.28 mL
same,Average animal paw volume percent change,"10 mg/kg, Day 15, left hind paw (L)",40.41%
same,Animal paw volume Day 15 L,"10 mg/kg, Day 15, left paw, individual animals",2.13 mL and 1.73 mL and 2.33 mL and 2.49 mL and 1.41 mL and 1.60 mL and 1.49 mL and 1.51 mL
same,Average animal paw volume percent change,"10 mg/kg, Day 15, right hind paw (R)",34.05%
same,Animal paw volume Day 15 R,"10 mg/kg, Day 15, right paw, individual animals",1.93 mL and 1.83 mL and 2.53 mL and 1.91 mL and 1.38 mL and 1.45 mL and 1.51 mL and 1.52 mL
same,Average animal paw volume percent change,"10 mg/kg, Day 18, left hind paw (L)",59.21%
same,Animal paw volume Day 18 L,"10 mg/kg, Day 18, left paw, individual animals",2.40 mL and 2.04 mL and 2.54 mL and 2.70 mL and 1.51 mL (2×) and 2.30 mL and 1.64 mL
same,Average animal paw volume percent change,"10 mg/kg, Day 18, right hind paw (R)",54.15%
same,Animal paw volume Day 18 R,"10 mg/kg, Day 18, right paw, individual animals",2.23 mL and 2.08 mL and 2.52 mL and 2.74 mL and 1.59 mL and 1.91 mL and 1.58 mL and 1.51 mL
same,Average animal paw volume percent change,"10 mg/kg, Day 19, left hind paw (L)",58.75%
same,Animal paw volume Day 19 L,"10 mg/kg, Day 19, left paw, individual animals",2.38 mL and 2.04 mL and 2.49 mL and 2.64 mL and 1.48 mL and 2.32 mL and 1.65 mL and 1.60 mL
same,Average animal paw volume percent change,"10 mg/kg, Day 19, right hind paw (R)",54.16%
same,Animal paw volume Day 19 R,"10 mg/kg, Day 19, right paw, individual animals",2.36 mL and 2.05 mL and 2.47 mL and 2.71 mL and 1.58 mL and 1.87 mL and 1.57 mL and 1.56 mL
same,Average animal paw volume percent change,"10 mg/kg, Day 21, left hind paw (L)",60.25%
same,Animal paw volume Day 21 L,"10 mg/kg, Day 21, left paw, individual animals",2.38 mL and 2.03 mL and 2.48 mL and 2.64 mL and 1.48 mL and 2.33 mL and 1.83 mL and 1.60 mL
same,Average animal paw volume percent change,"10 mg/kg, Day 21, right hind paw (R)",59.20%
same,Animal paw volume Day 21 R,"10 mg/kg, Day 21, right paw, individual animals",2.35 mL and 2.04 mL and 2.46 mL and 2.68 mL and 1.58 mL and 2.15 mL and 1.82 mL and 1.62 mL
same,animals that never showed signs of disease,[2],one animal
same,average clinical score relative to CIA + vehicle (group 2),[2],"significantly decreased (p<0.01) relative to animals in group 2 on days 18, 19 and 21"
same,average overall clinical score at plateau,[2],4
same,day on which paw volume noticeably increased,[2],~19 days
same,effect on hind paw volume,[2],most effective dose at preventing an increase in paw volume; also recorded: Paw volume increases were delayed; also recorded: proved most effective
same,paw volume increase at plateau relative to day 0,[2],approximately 35%
same,paw volume relative to CIA + vehicle (group 2),[2],"significantly reduced relative to group 2 at day 15 (left paw, p<0.05) and days 18, 19, 21 (both paws, p<0.01)"
same,animals exhibiting signs of disease,"30 mg/kg twice daily P.O. (group 7), day 12",One animal
same,animals exhibiting disease,[3],4/8
same,animals with a score of 2 on one hind limb,[3],2/8
same,animals exhibiting disease,"30 mg/kg twice daily P.O. (group 7), day 16",5/8
same,animals with scores of 2 or 3 on both hind limbs,"30 mg/kg twice daily P.O. (group 7), day 18",3/8
same,animals exhibiting disease,[4],7/8
same,animals with a score of 2 or 3 on both hind limbs,[4],4/8
same,animals with a clinical score of 3 on both hind limbs,[5],4/8
same,animals with a score of 1 on one or both hind limbs,[5],3/8
same,animals with no clinical score,[5],1/8
same,Average animal paw volume percent change,"30 mg/kg, Day 0, left hind paw (L)",0.00%
